Results published in patent US20170035691A1, “FOOD MATRICES AND METHODS OF MAKING AND USING” (UNIVERSITY OF MASSACHUSETTS, priority 2014, published 2017).
Values after ≈ are worked out from the molar mass of the structure shown.

Assays:
[1] = Cross-polarized light microscopy of curcumin crystals in mixtures (Example 3); format: physicochemical
[2] = Curcumin solubility in curcumin-excipient emulsion mixtures of different droplet size (Example 4); format: physicochemical; details: for solubility at 10 min: aqueous with cosolvent or surfactant or cyclodextrin, thermodynamic from solid, after incubation at 100° C.; for amount of curcumin present within the emulsion: 30° C. for 30 min
Protocol: The resulting mixtures were then incubated at either 30° C. for 30 min or 100° C. for 10 min to simulate a salad dressing or a cooking sauce, respectively. After incubation, selected samples were immediately placed in an ice water and then used for the following experiments.
(§1) One millilitre of supernatant was then mixed with 5 mL chloroform, vortexed, and centrifuged at 1750 rpm (≈940×G) for 10 min at ambient temperature. […] The two bottom chloroform layers were combined, and diluted to a concentration suitable to be analysed by a UV-VIS spectrophotometer at 419 nm (Ultraspec 3000 pro, GE Health Sciences, Pittsburgh, Pa., USA). A cuvette containing pure chloroform was used as a reference cell.

[3] = Curcumin solubility in curcumin-emulsion mixtures, spectrophotometric (Example 3); format: physicochemical; details: excipient emulsion, aqueous with cosolvent or surfactant or cyclodextrin, thermodynamic from solid
Protocol: Preparation of curcumin-emulsion, curcumin-oil, and curcumin-buffer mixtures. […] After incubation, selected samples were immediately placed in an ice water and then used for the following experiments. In some experiments, the curcumin was mixed with bulk corn oil or with buffer (PBS) solution rather than an emulsion.
as §1, with “1 mL of” for “One millilitre of”, “rpm” for “rpm (≈940×G)”, “to an appreciate” for “to a”, “concentration” for “concentration suitable”, “be analyzed” for “be analysed”, “Sciences,” for “Sciences, Pittsburgh, Pa.,”

[4] = Cross-polarized light microscopy of curcumin crystals (Example 4); format: physicochemical
[5] = Curcumin oil-solubility in bulk corn oil by turbidity (Example 3); format: physicochemical; details: for dissolution of curcumin crystals in corn oil (turbidity versus time): 3 mg/mL
Protocol: In some experiments, the change in turbidity with time was measured at a fixed incubation temperature (30 or 100° C.) to determine the kinetics of isothermal dissolution.

[6] = Rat feeding study: heptadecanoic acid and CoQ10 in duodenum, jejunum, ileum (Example 2); format: in vivo; details: for bioavailability in small intestinal tissues: encapsulated within digestible (corn oil) droplets with the smallest size, rat feeding study
Protocol: An animal feeding study was used to test the bioavailability of free fatty acids and CoQ10. Female Sprague Dawley rats (about 200-250 g) were purchased from Charles River Laboratories (Wilmington, Mass.). The Institutional Animal Care and Use Committee of the University of Massachusetts, Amherst, approved all animal procedures. Animals were housed in individual wire-bottomed cages in a windowless room with a 12-h light-dark cycle. After 10 days of adaptation, rats were fasted for 6 hours and 5 ml of emulsion was administered into a rat's stomach using a feeding needle (Roboz Surgical Instrument, Gaithersburg, Md.). Sample administration was conducted five times with 30 min intervals. Thirty min after the final administration, the rats were sacrificed by CO2 gas asphyxiation and blood samples were collected via cardiac puncture. Collected blood samples were allowed to clot for 30 min and then the serum layer was separated by centrifugation at 800 g for 20 min at 4° C. Serum was kept at −80° C. until analysis. The small intestine was flushed with phosphate buffered saline (PBS) five times, and the duodenum, jejunum, and ileum were collected. The intestine samples were kept at −80° C. until fatty acid composition and CoQ10 analyses. The in vivo experiment was carried out once, using three rats per sample analyzed.
Intestine extract was prepared by a method described previously by Tang, P. H., Miles, M. V., Miles, L., Quinlan, J., Wong, B., Wenisch, A., and Bove, K., “Measurement of reduced and oxidized coenzyme Q(9) and coenzyme Q(10) levels in mouse tissues by HPLC with coulometric detection”, Clinica Chimica Acta, 341(1-2):173-84 (2004), which is incorporated herein in its entirety. After thawing the intestine, approximately, 50 mg of intestine was weighed and 1 ml of ice cold 0.15M NaCl solution was added. Intestine sample (about 50 mg) was homogenized on ice and 50 μL of CoQ6 solution (Internal standard) and 25 μL of 1,4-benzoquione (5 mg/mL) solution was added to oxidize CoQ10. After 30 min. incubation at room temperature, 5 ml of 1-propanol was added and then mixed by vortexing for 1 min. Sample was centrifuged at 2,000 g for 5 min and the supernatant was filtered with a 0.1 μm disposable syringe filter (Celltreat, Shirley, Mass.). The oxidized CoQ10 concentration was standardized relative to the tissue weight.
Quantitative analysis was carried out using a high performance liquid chromatography system (Shimadzu Co. Japan) equipped with a pump (LC-10 AT), UV-visible detector (SPD-M10A), and controller (SCL-10A). A reverse phase C-18 column (ODS-2 Hypersil, 200×4.6 mm, 5 μm, Thermo scientific, Waltham, Mass.) was used. The mobile phase comprised of a mixture of 4.2 g sodium acetate anhydrous, 15 mL of glacial acetic acid, 15 mL 2-propanol, 830 mL methanol, and 140 ml hexane. The injection volume was 100 μl, the flow rate was 1 ml/min, UV detection was made at 275 nm and all analysis was performed at room temperature under isocratic conditions.
Lipids were extracted from samples (duodenum, jejunum, ileum) and blood using a standard method by Folch, J., Lees, M., and Stanley, G. H. S., “A simple method for the isolation and purification of total lipids from animal tissues”, Journal of Biological Chemistry, 226(1):497-509 (1957), which is incorporated herein in its entirety, and then the fatty acids were methylated prior to gas chromatography analysis as taught by Park, Y. and Pariza, M. W., “Evidence that commercial calf and horse sera can contain substantial amounts of trans-10,cis-12 conjugated linoleic acid”, Lipids, 33(8):817-19 (1998), which is incorporated herein in its entirety. Tridecenoic acid was used as an internal standard. Methyl esters of fatty acids were analyzed using a GC instrument (GC-17A, Shimadzu, Kyoto, Japan) fitted with a flame-ionization detector. […]

[7] = In vitro digestion model: bioaccessibility of β-carotene crystals mixed with emulsion or buffer (FIG. 6); format: in vitro ADME; details: β-carotene crystals mixed with oil-in-water emulsion (4% corn oil) versus buffer solution (PBS) without oil
Protocol: In this exemplary embodiment, β-carotene crystals were initially mixed with either an oil-in-water emulsion (containing 4% corn oil) or a buffer solution (PBS) containing no oil. The resulting mixtures were then passed through an in vitro gastrointestinal model that simulated the mouth, stomach, and small intestine. The bioaccessibility of β-carotene was determined by centrifuging the digesta resulting from a GIT model, and then measuring the fraction of β-carotene in the mixed micelle (middle phase). The GIT model used is described in Salvia-Trujillo, L.; Qian, C.; Martin-Belloso, O.; McClements, D. J., “Influence of Particle Size on Lipid Digestion and β-carotene Bioaccessibility in Emulsions and Nanoemulsions”, Food Chemistry, 141:1472-80 (2013), which is incorporated by reference herein in its entirety and for all purposes. In another instance, the method of these teachings also include using an animal feeding study to verify improvement of oral bioavailability when the predetermined pharmaceutical or nutraceutical is ingested with the food matrix. […]

[8] = Simulated gastrointestinal tract model: β-carotene bioaccessibility of nanoemulsions (Example 1); format: in vitro ADME; details: nanoemulsion, 0% corn oil (pure lemon oil system)
Protocol: Each β-carotene-enriched nanoemulsion was passed through a three-step simulated GIT model that consisted of a mouth, gastric, and small intestine phase. The particle size, charge, and microstructure of the samples were measured after incubation in each stage. […]
Small Intestine phase: Digesta samples (30 ml) obtained from the simulated gastric phase were placed in a beaker incubated in a water bath (37° C.) for 10 min and then adjusted to pH 7 with NaOH solution (0.05 or 1 M). […] The amount of free fatty acids released was calculated from the titration curves as described in Li, Y. and McClements, D. J., New Mathematical Model for Interpreting pH-Stat Digestion Profiles: Impact of Lipid Droplet Characteristics on in Vitro Digestibility”, Journal of Agricultural and Food Chemistry, 58:8085-92 (2010), which is incorporated herein in its entirety. The release of free fatty acids from the digestible oil (corn oil) was calculated by subtracting the FFA concentration determined at each time point for the pure lemon oil nanoemulsions from the FFA concentration determined for the nanoemulsions containing corn oil. […]

## COc1cc(/C=C/C(=O)CC(=O)/C=C/c2ccc(O)c(OC)c2)ccc1O [curcumin]
[1]; held at 100° C., any incubation time
  dissolution of curcumin crystals in curcumin-emulsion mixtures: rapidly and completely dissolved
[1]; incubated at 30° C. from 10 to 120 min
  dissolution of curcumin crystals in curcumin-emulsion mixtures: did not completely dissolve
[2]; excipient emulsion, large droplets
  solubility at 10 min: 230 µg/mL (≈ 624 µM)
[2]; excipient emulsions, small and medium droplets
  solubility at 10 min: 270 to 280 µg/mL (≈ 733 to 760 µM)
[2]; large emulsion
  amount of curcumin present within the emulsion: ~88 ± 26 µg/mL
[2]; medium emulsion
  amount of curcumin present within the emulsion: ~104 ± 6 µg/mL
[2]; small emulsion
  amount of curcumin present within the emulsion: around 66±1 μg/mL
[3]; incubation for 60 min at 30° C.
  solubility at 60 min: ~54 µg/mL (≈ 147 µM)
[3]; incubation for 60 min at 90° C. (so in the source)
  solubility at 60 min: ~218 µg/mL (≈ 592 µM)
[4]; all mixtures held at 100° C.
  dissolution of curcumin crystals in curcumin-excipient emulsion mixtures: rapidly and completely dissolved
[4]; all mixtures incubated at 30° C.
  dissolution of curcumin crystals in curcumin-excipient emulsion mixtures: did not completely dissolve
[5]; held at 30° C.
  dissolution of curcumin crystals in corn oil (turbidity versus time): only dissolved slowly
[5]; held at 100° C.
  dissolution of curcumin crystals in corn oil (turbidity versus time): rapidly dissolved
[5]; bulk corn oil, oil or lipid, thermodynamic from solid, ambient temperature, estimated from turbidity at 3 and 4 mg/mL
  solubility: 3000 to 4000 µg/mL (≈ 8140 to 10900 µM)

## CCCCCCCCCCCCCCCCC(=O)O [heptadecanoic acid, reference compound]
[6]
  bioavailability in small intestinal tissues: highest
[6]; rat, in vivo
  absorption of heptadecanoic acid in duodenum and jejunum: slightly more absorption
  absorption of heptadecanoic acid in duodenum, jejunum and ileum: significantly higher

## COC1=C(OC)C(=O)C(C/C=C(\C)CC/C=C(\C)CC/C=C(\C)CC/C=C(\C)CC/C=C(\C)CC/C=C(\C)CC/C=C(\C)CC/C=C(\C)CC/C=C(\C)CCC=C(C)C)=C(C)C1=O [CoQ10, Coenzyme Q10]
[6]
  bioavailability in small intestinal tissues: highest
[6]; rat, in vivo
  absorption of CoQ10 in all regions of the small intestine: some absorption
  absorption of CoQ10 in duodenum: no significant differences
  absorption of CoQ10 in jejunum and ileum: significantly higher

## CC1=C(/C=C/C(C)=C/C=C/C(C)=C/C=C/C=C(C)/C=C/C=C(C)/C=C/C2=C(C)CCCC2(C)C)C(C)(C)CCC1 [β-carotene]
[7]
  bioaccessibility of β-carotene: increases the bioaccessibility
[8]
  bioaccessibility of β-carotene: ≈ 5%
